PubChem BioAssay (NCI)
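Grown in 96-well plates, cells were treated for 48 hours with each compound at five concentrations. Insufficient inhibition: endpoint recorded as highest concentration tested. GI50 = concentration required for 50% inhibition of growth. The concentration for full growth arrest is given as TGI.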

Tests used:
Assay in all cases: growth of human tumour cells (NCI), 48 h
786-0 renal = system: 786-0 renal
A498 renal = system: A498 renal
A549 NSCLC = system: A549 NSCLC
ACHN renal = system: ACHN renal
BT-549 breast = system: BT-549 breast
CAKI-1 renal = system: CAKI-1 renal
CCRF-CEM leukemia = system: CCRF-CEM leukemia
COLO 205 colon = system: COLO 205 colon
DU-145 prostate = system: DU-145 prostate
EKVX NSCLC = system: EKVX NSCLC
HCC-2998 colon = system: HCC-2998 colon
HCT-116 colon = system: HCT-116 colon
HCT-15 colon = system: HCT-15 colon
HOP-62 NSCLC = system: HOP-62 NSCLC
HOP-92 NSCLC = system: HOP-92 NSCLC
HT29 colon = system: HT29 colon
IGROV1 ovarian = system: IGROV1 ovarian
K-562 leukemia = system: K-562 leukemia
KM12 colon = system: KM12 colon
LOX IMVI melanoma = system: LOX IMVI melanoma
MALME-3M melanoma = system: MALME-3M melanoma
MCF7 breast = system: MCF7 breast
MDA-MB-231 breast = system: MDA-MB-231 breast
MOLT-4 leukemia = system: MOLT-4 leukemia
NCI-H226 lung = system: NCI-H226 lung
NCI-H23 lung = system: NCI-H23 lung
NCI-H460 lung = system: NCI-H460 lung
NCI-H522 lung = system: NCI-H522 lung
OVCAR-3 ovarian = system: OVCAR-3 ovarian
OVCAR-4 ovarian = system: OVCAR-4 ovarian
OVCAR-5 ovarian = system: OVCAR-5 ovarian
OVCAR-8 ovarian = system: OVCAR-8 ovarian
PC-3 prostate = system: PC-3 prostate
RPMI-8226 leukemia = system: RPMI-8226 leukemia
SF-268 CNS = system: SF-268 CNS
SF-295 CNS = system: SF-295 CNS
SK-MEL-2 melanoma = system: SK-MEL-2 melanoma
SK-MEL-28 melanoma = system: SK-MEL-28 melanoma
SK-MEL-5 melanoma = system: SK-MEL-5 melanoma
SK-OV-3 ovarian = system: SK-OV-3 ovarian
SN12C renal = system: SN12C renal
SNB-19 CNS = system: SNB-19 CNS
SNB-75 CNS = system: SNB-75 CNS
SR leukemia = system: SR leukemia
SW-620 colon = system: SW-620 colon
T-47D breast = system: T-47D breast
TK-10 renal = system: TK-10 renal
U251 CNS = system: U251 CNS
UACC-257 melanoma = system: UACC-257 melanoma
UACC-62 melanoma = system: UACC-62 melanoma
UO-31 renal = system: UO-31 renal

CC(=O)Nc1cccc(Nc2nccc(N[C@@H](C)c3ccccc3)n2)c1
GI50 (786-0 renal): 602 nM | TGI (786-0 renal): > 10000 nM | TGI (A498 renal): > 10000 nM | GI50 (A549 NSCLC): 418 nM | TGI (A549 NSCLC): > 10000 nM | GI50 (ACHN renal): 509 nM | TGI (ACHN renal): > 10000 nM | GI50 (BT-549 breast): 442 nM | TGI (BT-549 breast): > 10000 nM | GI50 (CAKI-1 renal): 108 nM | TGI (CAKI-1 renal): > 10000 nM | GI50 (CCRF-CEM leukemia): 233 nM | TGI (CCRF-CEM leukemia): > 10000 nM | GI50 (COLO 205 colon): 262 nM | TGI (COLO 205 colon): 1080 nM | GI50 (DU-145 prostate): 383 nM | TGI (DU-145 prostate): > 10000 nM | GI50 (EKVX NSCLC): 363 nM | TGI (EKVX NSCLC): > 10000 nM | GI50 (HCC-2998 colon): 423 nM | TGI (HCC-2998 colon): > 10000 nM | GI50 (HCT-116 colon): 276 nM | TGI (HCT-116 colon): > 10000 nM | GI50 (HCT-15 colon): 121 nM | TGI (HCT-15 colon): > 10000 nM | GI50 (HOP-62 NSCLC): 345 nM | TGI (HOP-62 NSCLC): > 10000 nM | GI50 (HOP-92 NSCLC): 793 nM | TGI (HOP-92 NSCLC): > 10000 nM | GI50 (HT29 colon): 194 nM | TGI (HT29 colon): > 10000 nM | GI50 (IGROV1 ovarian): 370 nM | TGI (IGROV1 ovarian): > 10000 nM | GI50 (K-562 leukemia): 49.8 nM | TGI (K-562 leukemia): > 10000 nM | GI50 (KM12 colon): 104 nM | TGI (KM12 colon): > 10000 nM | GI50 (LOX IMVI melanoma): 390 nM | TGI (LOX IMVI melanoma): > 10000 nM | GI50 (MALME-3M melanoma): 102 nM | TGI (MALME-3M melanoma): > 10000 nM | GI50 (MCF7 breast): 171 nM | TGI (MCF7 breast): > 10000 nM | GI50 (MDA-MB-231 breast): 416 nM | TGI (MDA-MB-231 breast): > 10000 nM | GI50 (MOLT-4 leukemia): 327 nM | TGI (MOLT-4 leukemia): > 10000 nM | GI50 (NCI-H226 lung): 1000 nM | TGI (NCI-H226 lung): > 10000 nM | GI50 (NCI-H23 lung): 239 nM | TGI (NCI-H23 lung): > 10000 nM | GI50 (NCI-H460 lung): 246 nM | TGI (NCI-H460 lung): > 10000 nM | GI50 (NCI-H522 lung): 129 nM | TGI (NCI-H522 lung): 1240 nM | GI50 (OVCAR-3 ovarian): 118 nM | TGI (OVCAR-3 ovarian): > 10000 nM | GI50 (OVCAR-4 ovarian): 1020 nM | TGI (OVCAR-4 ovarian): > 10000 nM | GI50 (OVCAR-5 ovarian): 409 nM | TGI (OVCAR-5 ovarian): > 10000 nM | GI50 (OVCAR-8 ovarian): 363 nM | TGI (OVCAR-8 ovarian): > 10000 nM | GI50 (PC-3 prostate): 319 nM | TGI (PC-3 prostate): > 10000 nM | GI50 (RPMI-8226 leukemia): 293 nM | TGI (RPMI-8226 leukemia): > 10000 nM | GI50 (SF-268 CNS): 990 nM | TGI (SF-268 CNS): > 10000 nM | GI50 (SF-295 CNS): 110 nM | TGI (SF-295 CNS): 522 nM | GI50 (SK-MEL-2 melanoma): 180 nM | TGI (SK-MEL-2 melanoma): > 10000 nM | GI50 (SK-MEL-28 melanoma): 703 nM | TGI (SK-MEL-28 melanoma): > 10000 nM | GI50 (SK-MEL-5 melanoma): 125 nM | TGI (SK-MEL-5 melanoma): 481 nM | GI50 (SK-OV-3 ovarian): 675 nM | TGI (SK-OV-3 ovarian): > 10000 nM | GI50 (SN12C renal): 559 nM | TGI (SN12C renal): > 10000 nM | GI50 (SNB-19 CNS): 335 nM | TGI (SNB-19 CNS): > 10000 nM | GI50 (SNB-75 CNS): 119 nM | TGI (SNB-75 CNS): > 10000 nM | GI50 (SR leukemia): 45.3 nM | TGI (SR leukemia): > 10000 nM | GI50 (SW-620 colon): 194 nM | TGI (SW-620 colon): > 10000 nM | GI50 (T-47D breast): 331 nM | TGI (T-47D breast): > 10000 nM | GI50 (TK-10 renal): 760 nM | TGI (TK-10 renal): > 10000 nM | GI50 (U251 CNS): 289 nM | TGI (U251 CNS): > 10000 nM | GI50 (UACC-257 melanoma): 908 nM | TGI (UACC-257 melanoma): > 10000 nM | GI50 (UACC-62 melanoma): 126 nM | TGI (UACC-62 melanoma): > 10000 nM | GI50 (UO-31 renal): 372 nM | TGI (UO-31 renal): > 10000 nM
